Patent US12729186B2, “Prodrugs for sustained releasing therapeutic agents and uses thereof” (LIANGJIANG MEDICINE CO., LTD., priority 2020, dated 2026)

Experiment: Drug release assay (hydrolysis rate test in pH 7.4 / pH 2.0 buffer, HPLC)
Format: physicochemical
Conditions: for Hydrolysis constant Kh pH 2.0 / Hydrolysis constant Kh pH 7.4: Kh=-ln[100%-Release rate (%)]/t; for Release rate (%) pH 2.0 (6 h): pH 2.0 buffer solution; for Release rate (%) pH 2.0 (6 h) / Release rate (%) pH 7.4 (0.5 h) / Release rate (%) pH 7.4 (6 h): 37° C., 200 rpm, residual content relative to 0 h by HPLC; for Release rate (%) pH 7.4 (0.5 h) / Release rate (%) pH 7.4 (6 h): pH 7.4 buffer solution
Method: Preparation of pH2.0 Buffer Solution
Preparation of pH7.4 Buffer Solution
Method of Hydrolysis Rate Test
The compounds were dissolved in pH7.4/pH2.0 buffer solution, placed in a constant temperature shaker at 37° C. and 200 rpm, and sampled at 0 h, 0.5 h and 6 h respectively. The residual contents of the compounds relative to 0 h were tested at each time point.
The release rates (%) were calculated using the following equation: Release rate (%)=[A(0h)−A(xh)]/A(0h)×100%, (x=0, 0.5, 6), A(xh) is the peak area of compounds tested by HPLC at the indicated time point.
The hydrolysis constants (Kh) were calculated using the following equation: Hydrolysis constant Kh=−ln[100%−Release rate (%)]/t Results

SMILES	Hydrolysis constant Kh pH 2.0	Release rate (%) pH 2.0 (6 h)	Hydrolysis constant Kh pH 7.4	Release rate (%) pH 7.4 (0.5 h)	Release rate (%) pH 7.4 (6 h)
CCCCCCCN1CCC(COC(=O)Oc2ccc3nc4c(c(CC)c3c2)Cn2c-4cc3c(c2=O)COC(=O)[C@]3(O)CC)CC1 [Example 18, (S)-4,11-diethyl-4-hydroxy-3,14-dioxo-3,4,12,14-tetrahydro-1H-pyrano[3′,4′:6,7]indolizino[1,2-b]quinolin-9-yl ((1-heptylpiperidin-4-yl)methyl) carbonate]	<0.001	0.3%	0.184	8.8%	11.9%
Cn1nnc2c(C(=O)NC(=O)Oc3ccc(CC4CCN(C(c5ccccc5)c5ccccc5)CC4)cc3)ncn2c1=O [Example 21, 4-((1-Benzhydrylpiperidin-4-yl)methyl)phenyl (3-methyl-4-oxo-3,4-dihydroimidazo[5,1-d][1,2,3,5]tetrazine-8-carbonyl)carbamate]	<0.001	0%	3.397	81.7%	100%
CCCc1ccc(N2CCc3cc(OC(=O)OCn4cc(F)c(=O)[nH]c4=O)ccc3C2)cc1 [Example 5, (5-Fluoro-2,4-dioxo-3,4-dihydropyrimidin-1(2H)-yl)methyl (2-(4-propylphenyl)-1,2,3,4-tetrahydroisoquinolin-6-yl) carbonate]	0.137	56%	5.838	94.6%	95%
CCc1c2c(nc3ccc(OC(=O)NCC4CCCN4C(c4ccccc4)c4ccccc4)cc13)-c1cc3c(c(=O)n1C2)COC(=O)[C@]3(O)CC (stereo partly drawn) [Example 16, (S)-4,11-diethyl-4-hydroxy-3,14-dioxo-3,4,12,14-tetrahydro-1H-pyrano[3′,4′:6,7]indolizino[1,2-b]quinolin-9-yl ((1-benzhydrylpyrrolidin-2-yl)methyl)carbamate]	<0.001	0.4%	6.540	96.2%	100%
O=C(OCn1cc(F)c(=O)[nH]c1=O)Oc1ccc(CC2CCN(C(c3ccccc3)c3ccccc3)CC2)cc1 [Example 9, 4-((1-Benzhydrylpiperidin-4-yl)methyl)phenyl ((5-fluoro-2,4-dioxo-3,4-dihydropyrimidin-1(2H)-yl)methyl) carbonate]	0.027	15%	4.508	89.5%	90%
CCCN(CCC)c1ccc(-c2ccc(OC(=O)OCn3cc(F)c(=O)[nH]c3=O)cc2)cc1 [Example 2, 4′-(Dipropylamino)-[1,1′-biphenyl]-4-yl ((5-fluoro-2,4-dioxo-3,4-dihydropyrimidin-1(2H)-yl)methyl) carbonate]	0.080	38%	2.375	69.5%	89%
CC[C@@]1(O)C(=O)OCc2c1cc1n(c2=O)Cc2cc3cc(OC(=O)OCC4CCCN4C(c4ccccc4)c4ccccc4)ccc3nc2-1 (stereo partly drawn) [Example 20, (1-Benzhydrylpyrrolidin-2-yl)methyl ((S)-4-ethyl-4-hydroxy-3,14-dioxo-3,4,12,14-tetrahydro-1H-pyrano[3′,4′:6,7]indolizino[1,2-b]quinolin-9-yl) carbonate]	0.078	37.2%	>20	100%	100%
CCCCCCOC(=O)OCn1cc(F)c(=O)[nH]c1=O [Example 24, (5-Fluoro-2,4-dioxo-3,4-dihydropyrimidin-1(2H)-yl)methyl hexyl carbonate]	<0.001	0%	0.094	4.6%	55.7%
O=C(OCn1cc(F)c(=O)[nH]c1=O)Oc1ccc(C2CCN(CC(c3ccccc3)c3ccccc3)CC2)cc1 [Example 7, 4-(1-(2,2-Diphenylethyl)piperidin-4-yl)phenyl ((5-fluoro-2,4-dioxo-3,4-dihydropyrimidin-1(2H)-yl)methyl) carbonate]	0.029	16%	9.924	99.3%	92%
CCCCN(CCCC)c1ccc(N2CCC(CCOC(=O)OCn3cc(F)c(=O)[nH]c3=O)CC2)cc1 [Example 1, 2-(1-(4-(Dibutylamino)phenyl)piperidin-4-yl)ethyl ((5-fluoro-2,4-dioxo-3,4-dihydropyrimidin-1(2H)-yl)methyl) carbonate]	<0.001	0%	0.111	5.4%	64%
COc1ccc(OC(=O)OCn2cc(F)c(=O)[nH]c2=O)cc1 [Example 25, (5-Fluoro-2,4-dioxo-3,4-dihydropyrimidin-1(2H)-yl)methyl (4-methoxyphenyl) carbonate]	0.151	40.5%	0.451	20.2%	61.3%
CCc1c2c(nc3ccc(OC(=O)[C@@H]4CCCN4C(c4ccccc4)c4ccccc4)cc13)-c1cc3c(c(=O)n1C2)COC(=O)[C@]3(O)CC [Example 14, (S)-4,11-diethyl-4-hydroxy-3,14-dioxo-3,4,12,14-tetrahydro-1H-pyrano[3′,4′:6,7]indolizino[1,2-b]quinolin-9-yl benzhydrylprolinate]	0.015	8.4%	3.876	85.6%	84.4%
CCCCCN(CCCCC)c1ccc(OC(=O)OCn2cc(F)c(=O)[nH]c2=O)cc1 [Example 3, 4-(Dipentylamino)phenyl ((5-fluoro-2,4-dioxo-3,4-dihydropyrimidin-1(2H)-yl)methyl) carbonate]	0.153	60%	1.873	60.8%	100%
CCCCN1CCC(c2ccc(OC(=O)Oc3ccc4nc5c(c(CC)c4c3)Cn3c-5cc4c(c3=O)COC(=O)[C@]4(O)CC)cc2)CC1 [Example 17, (S)-4-(1-butylpiperidin-4-yl)phenyl (4,11-diethyl-4-hydroxy-3,14-dioxo-3,4,12,14-tetrahydro-1H-pyrano[3′,4′:6,7]indolizino[1,2-b]quinolin-9-yl) carbonate]	0.095	43.6%	0.096	4.7%	57.4%
CCCCC1CCN(c2ccc(CCOC(=O)n3cc(F)c(=O)[nH]c3=O)cc2)CC1 [Example 10, 4-(4-Butylpiperidin-1-yl)phenethyl 5-fluoro-2,4-dioxo-3,4-dihydropyrimidine-1(2H)-carboxylate]	0.077	37%	0.256	12.0%	54%
CC[C@@]1(O)C(=O)OCc2c1cc1n(c2=O)Cc2cc3cc(OC(=O)CC4CCN(CC(c5ccccc5)c5ccccc5)CC4)ccc3nc2-1 [Example 13, (S)-4-ethyl-4-hydroxy-3,14-dioxo-3,4,12,14-tetrahydro-1H-pyrano[3′,4′:6,7]indolizino[1,2-b]quinolin-9-yl 2-(1-(2,2-diphenylethyl)piperidin-4-yl)acetate]	<0.001	0.5%	0.042	2.1%	23.3%
